Laboratory results taken from patent US20100056524A1, “Compound” (priority 2008, published 2010).
Where a name gives a salt, the structure may show the parent alone. Read-outs that look alike come from different tables or passages of the source.

Key:
Type in all cases: biochemical
[1] = target: T1, JNK1 (Homo sapiens, UniProt P45983); experiment: JNK1 protein kinase assay; conditions: for remaining activity at 10 µM: 10 μM compound; for residual kinase activity JNK1: 1 μm compound; for remaining activity at 1 µM: 1 μM compound
T1 construct: All protein kinases were of human origin and encoded full length proteins, unless indicated otherwise; made in house
Excerpt: (§1) All protein kinases were of human origin and encoded full length proteins, unless indicated otherwise. They were either expressed as glutathione S-transferase (GST) fusion proteins in Escherichia Coli or as hexahistidine (His6)-tagged proteins in insect Sf21 cells. GST fusion proteins were purified by affinity chromatography on glutathione-Sepharose, and His6-tagged proteins on nickel/nitriloacetate-agarose. The procedures for expressing some of the protein kinases used herein have been detailed previously.^8,9 The following sections outline the DNA vectors synthesised and the procedures used to express and purifying protein kinases that have not been reported previously.
(§2) In order to produce activated forms of Aurora B and Aurora C, insect Sf21 cells were incubated for 1 h with the protein phosphatase inhibitor okadaic acid (50 nM). JNK isoforms were activated with MKK4 and MKK7, MNK2 with p38α MAPkinase; PKBα, PKBβ, with PDK1, and ERK1 with MKK1. To activate CDK2, bacterial pellets expressing cyclin A2 and CDK2 were mixed together, lyse and purified on glutathione Sepharose. The GST-tags were removed by cleavage with PreScission protease and the CDK2-cyclin A2 complex purified by chromatography on SP-Sepharose. It was then activated with CAK1/CDK7 followed by chromatography on nickel-nitrilotriacetate agarose to remove CAK1/CDK7, which binds to this column by virtue of its C-terminal His6 tag. All the other protein kinases were active as expressed.
(§3) All assays (25.5 μl) were carried out at room temperature (21° C.) and were linear with respect to time and enzyme concentration under the conditions used. Assays were performed for 30 min using Multidrop Micro reagent dispensers (Thermo Electron Corporation, Waltham, Mass. 02454, USA) in a 96-well format. The concentration of magnesium acetate in the assays was 10 mM and the [γ-33P] ATP (800 cpm/pmol) was used at 5, 20 or 50 μM as indicated, in order to be at or below the Km for ATP for each enzyme. Protein kinases assayed at 5 μM ATP were: —ERK1, ERK8, PKBα, MARK3, Aurora C. Protein kinases assayed at 20 μM ATP were: —JNK1, PDK1, CHK1, CHK2, CDK2 and Aurora B. Protein kinases assayed at 50 μM ATP were: —MNK2, IKKepsilon and TBK1.
(§4) The assays were initiated with MgATP, stopped by addition of 5 μl of 0.5 M orthophosphoric acid and spotted on to P81 filterplates using a unifilter harvester (PerkinElmer, Boston, Mass. 02118, USA). The IC50 values of inhibitors were determined after carrying out assays at 10 different concentrations of each compound.
(§5) Unless stated otherwise, enzymes were diluted in 50 mM Tris/HCl pH 7.5, 0.1 mM EGTA, 1 mg/ml BSA, 0.1% (v/v) 2-mercaptoethanol and assayed in 50 mM Tris/HCl pH 7.5, 0.1 mM EGTA, 0.1% (v/v) 2-mercaptoethanol.

[2] = target: T2, PKBa (Homo sapiens, UniProt P31749, S473D); experiment: PKBa protein kinase assay; conditions: for remaining activity at 10 µM: 10 μM compound
T2 construct: protein kinase Bα[118-480][S473D]; His6; made in house; host or cells: insect Sf21 cells
Excerpt: as §1
(§6) The following kinases were expressed in Sf21 cells: Aurora B and Aurora C, extra-cellular signal-regulated kinase 8 (ERK8), microtubule affinity regulating kinase 3 (MARK3), protein kinase Bα[118-480][S473D], protein kinase Bβ (PKBβ[120-481][S474D], 3-phosphoinositide-dependent protein kinase-1 [52-556]
as §2, §3, §4, §5

[3] = target: T3, S6K1 (Homo sapiens, UniProt P23443, T412E); experiment: S6K1 protein kinase assay; conditions: for remaining activity at 10 µM: 10 μM compound; for residual kinase activity S6K1: 1 μm compound; for remaining activity at 1 µM: 1 μM compound
T3 construct: All protein kinases were of human origin and encoded full length proteins, unless indicated otherwise; made in house
Excerpt: as §1, §3, §4, §5

[4] = target: T4, MARK3 (Homo sapiens, UniProt P27448); experiment: MARK3 protein kinase assay; conditions: for remaining activity at 10 µM: 10 μM compound; for residual kinase activity MARK3: 1 μm compound; for remaining activity at 1 µM: 1 μM compound
T4 construct: All protein kinases were of human origin and encoded full length proteins, unless indicated otherwise; His6; made in house; host or cells: Sf21 insect cells
Excerpt: as §1, §6, §3, §4
ERK1 and ERK8 were both assayed against myelin basic protein (MBP, 0.33 mg/ml). MARK3 was assayed against the peptide […] (300 μM), MNK2 against the eIF4E protein (0.5 mg/ml). PKBβ was assayed against the peptide […] (30 μM). TBK1 were assayed against ([…]) (300 μM). The substrates used for other protein kinases were described previously.^8,9
as §5

[5] = target: T5, IKKe (Homo sapiens, UniProt Q14164); experiment: IKKe protein kinase assay; conditions: for remaining activity at 10 µM: 10 μM compound; for residual kinase activity IKKe: 1 μm compound; for remaining activity at 1 µM: 1 μM compound
T5 construct: All protein kinases were of human origin and encoded full length proteins, unless indicated otherwise; His6; made in house; host or cells: insect Sf21 cells
T5 sequence (Q14164 1-716): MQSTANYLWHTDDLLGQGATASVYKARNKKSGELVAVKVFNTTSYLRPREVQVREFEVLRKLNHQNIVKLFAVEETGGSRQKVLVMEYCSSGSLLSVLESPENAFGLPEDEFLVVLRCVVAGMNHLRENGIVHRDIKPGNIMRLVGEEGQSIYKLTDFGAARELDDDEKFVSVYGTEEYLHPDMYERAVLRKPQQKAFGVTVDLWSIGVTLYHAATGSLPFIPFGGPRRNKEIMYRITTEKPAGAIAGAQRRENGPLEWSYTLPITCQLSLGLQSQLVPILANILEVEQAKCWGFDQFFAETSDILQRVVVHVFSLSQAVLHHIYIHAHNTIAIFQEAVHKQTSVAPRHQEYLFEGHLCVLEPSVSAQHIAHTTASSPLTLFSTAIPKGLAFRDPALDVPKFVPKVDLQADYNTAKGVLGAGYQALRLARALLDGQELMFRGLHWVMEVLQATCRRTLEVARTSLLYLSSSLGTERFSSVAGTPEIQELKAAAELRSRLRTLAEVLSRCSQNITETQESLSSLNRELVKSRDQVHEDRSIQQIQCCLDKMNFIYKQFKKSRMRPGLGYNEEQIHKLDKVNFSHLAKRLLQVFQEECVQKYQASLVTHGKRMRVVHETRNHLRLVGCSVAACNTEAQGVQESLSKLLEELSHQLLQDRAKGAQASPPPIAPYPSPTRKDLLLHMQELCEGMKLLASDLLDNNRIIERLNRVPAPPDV
Excerpt: as §1, §6, §3, §4, §5

[6] = read-out: residual kinase activity JNK1
[7] = read-out: residual kinase activity PKBa
[8] = 1 μm compound, read-out: residual kinase activity PKBa
[9] = read-out: residual kinase activity S6K1
[10] = read-out: residual kinase activity MARK3
[11] = read-out: residual kinase activity IKKe
[12] = JNK1, 20 μM ATP, read-out: residual kinase activity
[13] = PKBa, 1 μM compound, 5 μM ATP, read-out: residual kinase activity
[14] = PKBa, 5 μM ATP, read-out: residual kinase activity
[15] = S6K1, read-out: residual kinase activity
[16] = MARK3, 5 μM ATP, read-out: residual kinase activity
[17] = IKKe, 50 μM ATP, read-out: residual kinase activity

T1 sequence (P45983 1-384 isoform P45983-2): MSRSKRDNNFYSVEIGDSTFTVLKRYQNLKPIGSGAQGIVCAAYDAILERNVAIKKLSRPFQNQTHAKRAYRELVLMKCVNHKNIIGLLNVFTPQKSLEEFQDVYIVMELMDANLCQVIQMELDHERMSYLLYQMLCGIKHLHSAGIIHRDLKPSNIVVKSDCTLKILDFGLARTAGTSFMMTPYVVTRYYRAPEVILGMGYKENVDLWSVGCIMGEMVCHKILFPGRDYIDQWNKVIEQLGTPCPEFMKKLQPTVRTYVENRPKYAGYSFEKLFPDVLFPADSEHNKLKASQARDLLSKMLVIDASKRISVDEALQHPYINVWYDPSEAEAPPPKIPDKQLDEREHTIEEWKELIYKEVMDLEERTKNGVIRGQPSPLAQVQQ
T2 sequence (P31749 118-480 S473D): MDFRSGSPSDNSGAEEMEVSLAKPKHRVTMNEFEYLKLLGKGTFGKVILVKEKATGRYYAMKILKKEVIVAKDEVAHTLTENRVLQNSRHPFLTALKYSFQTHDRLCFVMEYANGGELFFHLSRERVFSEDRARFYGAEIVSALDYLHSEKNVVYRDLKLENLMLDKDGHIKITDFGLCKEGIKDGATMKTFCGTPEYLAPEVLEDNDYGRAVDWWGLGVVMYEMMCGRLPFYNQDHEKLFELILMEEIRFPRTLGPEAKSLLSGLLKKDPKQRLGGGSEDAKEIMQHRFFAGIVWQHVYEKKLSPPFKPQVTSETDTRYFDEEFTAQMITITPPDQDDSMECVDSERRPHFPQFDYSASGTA
T4 sequence (P27448 whole entry): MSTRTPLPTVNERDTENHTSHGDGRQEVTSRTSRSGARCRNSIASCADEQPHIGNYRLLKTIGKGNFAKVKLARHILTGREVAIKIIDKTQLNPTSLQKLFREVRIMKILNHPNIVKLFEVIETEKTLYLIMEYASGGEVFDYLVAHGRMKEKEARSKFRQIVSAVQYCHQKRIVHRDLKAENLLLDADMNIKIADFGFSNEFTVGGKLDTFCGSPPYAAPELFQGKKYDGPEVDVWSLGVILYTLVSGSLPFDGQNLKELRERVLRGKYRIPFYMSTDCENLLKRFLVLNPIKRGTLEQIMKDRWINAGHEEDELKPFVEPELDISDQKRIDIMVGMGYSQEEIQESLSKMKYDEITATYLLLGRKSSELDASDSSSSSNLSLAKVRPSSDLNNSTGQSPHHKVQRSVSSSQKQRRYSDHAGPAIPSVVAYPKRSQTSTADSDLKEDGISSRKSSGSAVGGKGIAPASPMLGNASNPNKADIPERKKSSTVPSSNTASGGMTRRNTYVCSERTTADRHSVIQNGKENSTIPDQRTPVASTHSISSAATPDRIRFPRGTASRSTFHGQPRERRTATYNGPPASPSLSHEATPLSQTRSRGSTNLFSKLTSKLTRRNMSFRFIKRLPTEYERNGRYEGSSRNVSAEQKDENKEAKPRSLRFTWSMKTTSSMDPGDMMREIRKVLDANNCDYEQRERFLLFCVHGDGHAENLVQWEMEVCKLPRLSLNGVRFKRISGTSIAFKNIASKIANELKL
T3 sequence (P23443 1-421 T412E limits assumed): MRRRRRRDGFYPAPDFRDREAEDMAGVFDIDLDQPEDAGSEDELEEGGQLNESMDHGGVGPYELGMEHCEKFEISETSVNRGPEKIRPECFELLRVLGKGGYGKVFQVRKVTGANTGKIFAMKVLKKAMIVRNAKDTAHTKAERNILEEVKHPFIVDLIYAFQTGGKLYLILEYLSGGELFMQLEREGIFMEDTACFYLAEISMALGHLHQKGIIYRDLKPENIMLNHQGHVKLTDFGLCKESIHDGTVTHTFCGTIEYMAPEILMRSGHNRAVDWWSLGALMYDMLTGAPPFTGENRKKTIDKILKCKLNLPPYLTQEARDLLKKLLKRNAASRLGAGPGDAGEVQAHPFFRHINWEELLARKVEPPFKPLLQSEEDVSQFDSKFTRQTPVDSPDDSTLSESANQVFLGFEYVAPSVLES

SMILES | remaining activity at 10 µM [1, 6] [%] | residual kinase activity JNK1 [1] [%] | remaining activity at 10 µM [2, 7] [%] | remaining activity at 1 µM [2, 8] [%] | remaining activity at 10 µM [3, 9] [%] | residual kinase activity S6K1 [3] [%] | remaining activity at 10 µM [4, 10] [%] | residual kinase activity MARK3 [4] [%] | remaining activity at 10 µM [5, 11] [%] | residual kinase activity IKKe [5] [%] | remaining activity at 1 µM [1, 12] [%] | remaining activity at 10 µM [1, 12] [%] | remaining activity at 1 µM [2, 13] [%] | remaining activity at 10 µM [2, 14] [%] | remaining activity at 1 µM [3, 15] [%] | remaining activity at 10 µM [3, 15] [%] | remaining activity at 1 µM [4, 16] [%] | remaining activity at 10 µM [4, 16] [%] | remaining activity at 1 µM [5, 17] [%] | remaining activity at 10 µM [5, 17] [%]
O=C(NCCCNc1nc(Nc2cccc(F)c2)ncc1Br)C1CCC1 [Compound A, cyclobutanecarboxylic acid {3-[5-bromo-2-(3-fluoro-phenylamino)-pyrimidin-4-ylamino]-propyl}-amide, reference compound] | 9 | 46 | 92 | 107 | 13 | 49 | 2 | 3 | 3 | 13 | – | – | – | – | – | – | – | – | – | –
O=C(NCCCNc1nc(Nc2cccc(F)c2)ncc1C1CC1)C1CCC1 [Example 23, Cyclobutanecarboxylic acid {3-[5-cyclopropyl-2-(3-fluoro-phenylamino)-pyrimidin-4-ylamino]-propyl}-amide] | 73 | 91 | 91 | 100 | 30 | 38 | 1 | 0 | 5 | 15 | 91 | 73 | 100 | 91 | 38 | 30 | 0 | 1 | 15 | 5
O=C(NCCCNc1nc(Nc2cccc(N3CCCC3=O)c2)ncc1C1CC1)c1cccs1 [Example 47, Thiophene-2-carboxylic acid (3-{5-cyclopropyl-2-[3-(2-oxo-pyrrolidin-1-yl)-phenylamino]-pyrimidin-4-ylamino}-propyl)-amide. Hydrochloride salt] | – | – | – | – | – | – | – | – | – | – | 92 | 86 | 101 | 90 | 63 | 30 | 15 | 4 | 14 | 6
O=C(NCCCNc1nc(Nc2cccnc2)ncc1C1CC1)c1cccs1 [Example 50, Thiophene-2-carboxylic acid {3-[5-cyclopropyl-2-(pyridin-3-ylamino)-pyrimidin-4-ylamino]-propyl}-amide] | – | – | – | – | – | – | – | – | – | – | 94 | 87 | 109 | 97 | 63 | 30 | 13 | 2 | 28 | 7
